According to patent publication US12059464B2, “Combination therapy involving antibodies against Claudin 18.2 for treatment of cancer” (Astellas Pharma Inc., priority 2012, dated 2024):

What was measured:
[1] = Repeated dose toxicity study in mice; format: in vivo; conditions: weekly administration for 3 months, highest dose levels 400 mg/kg
Description: (§1) This compartimentalization is lost upon malignant transformation rendering the epitope drugable by IMAB362.

[2] = Phase I clinical study, single intravenous administration; format: in vivo, human
Description: IMAB362 is in early clinical testing. A phase I clinical study has been conducted in human. […] In an ongoing phase IIa clinical study IMAB362 is given repetitively.

[3] = system: CLDN18.2-transfected HEK293 cells; experiment: IMAB362 with ZA/IL-2 induced Vγ9Vδ2 T cells on HEK293~CLDN18.2 tumors in NSG mice; format: in vivo; conditions: 200 μg IMAB362 semi-weekly in the presence of human γδ T cells and ZA (plus IL-2)
Experimental: NSG mice lack mature T cells, B cells, natural killer (NK) cells, multiple cytokine signaling pathways, and they have many defects in innate immunity, whereas the niches in the primary and secondary immunological tissues are permissive to colonization by human immune cells.
NSG mice were inoculated subcutaneously with 1×10^7 CLDN18.2-transfected HEK293 cells. On the same day, mice received 8×10^6 human PBMCs enriched for Vγ9Vδ2 T cells, which were cultured for 14 days in ZA-supplemented medium. […] To maintain human T cells functional, IL-2 was administered semi-weekly and ZA weekly. […] In addition to 9 mice treated as described, two control groups of mice were established.

[4] = system: CLDN18.2-negative HEK293 tumor cells; experiment: IMAB362 treatment of mice engrafted with CLDN18.2-negative tumor cells; format: in vivo; conditions: CLDN18.2-negative tumors
Description: (§2) Treatment of 9 to 10 mice per group was initiated when mean tumor volumes reached 88 mm^3 (62-126 mm^3). […] All mice in the groups treated with either PBS or isotype control died within 50-100 days. […] Three of these mice survived the entire observation period (FIG. 20). Importantly, antitumoral efficacy in vivo depends on the presence of the target on the tumor cells.

[5] = system: HEK293~CLDN18.2 tumor xenografts; experiment: Treatment of advanced HEK293~CLDN18.2 tumor xenografts; format: in vivo, nude mice
Description: (§3) Moreover, advanced tumor treatment experiments were initiated up to 9 days after tumor cell inoculation when tumors had reached volumes of about 60-120 mm^3.
as §2

[6] = Repeated dose toxicity studies in cynomolgus monkeys; format: in vivo; conditions: up to 5 weekly applications of up to 100 mg/kg
Description: as §1

[7] = system: NUGC-4 cells expressing CLDN18.2; experiment: IMAB362 ADCC on NUGC-4 cells with PBMCs cultivated with IL-2 with or w/o ZA (luciferase assay); format: cell-based, human; conditions: PBMCs cultivated for 14 days with ZA/IL-2; IMAB362 0.26 ng/ml-200 μg/ml
Experimental: Specific killing was determined in luciferase assays; cf. FIG. 14a. […] NUGC-4 served as target cells.

[8] = Toxicity and PK/TK profile studies (all toxicity studies); format: in vivo, mice and cynomolgus monkeys
Description: as §1

[9] = system: NCI-N87~CLDN18.2 xenograft tumors; experiment: Combination therapy with IMAB362 and EOF regimen on NCI-N87~CLDN18.2 xenografts
Experimental: NCI-N87˜CLDN18.2 xenograft tumors were inoculated by injection of 1×10^7 NCI-N87˜CLDN18.2 cells subcutaneous into the flank of 9 mice for each treatment group. […] Tumor size and animal health was monitored semi-weekly. […] The size of s.c. tumors was measured twice weekly (mean+SEM; *p<0.05). […] Mice were sacrificed, when tumor reached a volume of 1400 mm^3.

[10] = target: first extracellular domain (ECD1) of CLDN18.2 (Homo sapiens, UniProt P56856); experiment: Binding of IMAB362 to CLDN18.2
[11] = system: CLDN18.2-positive cancer cell lines; experiment: IMAB362 treatment of mice bearing CLDN18.2-positive cancer cell lines; conditions: mouse, in vivo
[12] = system: NCI-N87~CLDN18.2 xenograft tumors; experiment: IMAB362 immunotherapy of NCI-N87~CLDN18.2 gastric carcinoma xenografts
Description: NCI-N87˜CLDN18.2 xenograft tumors were inoculated subcutaneously by injection of 1×10^7 NCI-N87˜CLDN18.2 cells into the flank of 8 nude mice (female, 6 weeks old) per treatment group. […] Intravenous administration was continued weekly for the whole observation time. Tumor size and animal health was monitored semi-weekly. […] Mice were sacrificed, when tumor reached a volume of 1400 mm^3

[13] = system: NUGC-4 xenografts; experiment: In vivo tumor targeting of Dyelight 680-labeled antibodies (fluorescence imaging); set-up: species or system nude mice
[14] = system: NUGC-4~CLDN18.2 xenograft tumors; experiment: Combination therapy with IMAB362 and EOF regimen on NUGC-4~CLDN18.2 xenografts; format: in vivo, nude mice; conditions: chemotherapy day 3, 10, 17, 24; IMAB362 weekly
Experimental: Mice were treated on day 3, 10, 17 and 24 with chemotherapeutic agents. IMAB362 treatment was continued weekly.

[15] = system: HEK293~CLDN18.2 transfectants; experiment: Early treatment of HEK293~CLDN18.2 tumor xenografts; format: in vivo, nude mice; conditions: 200 μg twice per week for 6 weeks i.v./i.p., start 3 days after inoculation
Description: as §3
Nude mice were subcutaneously inoculated with 1×10^7 HEK293˜CLDN18.2 transfectants. Treatment of 10 mice per group started 3 days after tumor inoculation. […] Not only time to death was prolonged, but 4 of 10 mice survived the entire observation period of 210 days.

[16] = system: NUGC-4 gastric cancer cells; experiment: NUGC-4 gastric tumor xenograft model
Description: Tumor sizes were monitored twice weekly.
Mice were stratified size-dependently into treatment groups (FIG. 21).

[17] = system: CLDN18.2-positive (NUGC-4, KATO III) and negative (SK-BR-3) human target cell lines; experiment: IMAB362 ADCC with ZA/IL-2 expanded effector cells on CLDN18.2-positive and negative target cell lines; format: cell-based
Experimental: These effector cell cultures were used in ADCC assays with CLDN18.2-positive (NUGC-4, KATO III) and negative (SK-BR-3) human target cell lines (E:T ratio 40:1). […] ADCC was measured in luciferase assays; cf. FIG. 15a. […] FIG. 15b. Same experiment as described in (a) was performed using NUGC-4 as target cells; cf. FIG. 15c. […] A purity of more than 97.0% Vγ9Vδ2 T cells in lymphocytes was obtained.

[18] = system: CLS-103~cldn18.2 allograft tumors; experiment: Combination therapy with IMAB362 and EOF on CLS-103~cldn18.2 allograft tumors; format: in vivo, NMRI mice; conditions: EOF i.p. day 3, 10, 17, 24; IMAB362 800 μg i.v.; IL-2 3000 IE s.c. semi-weekly
Description: CLS-103˜cldn18.2 allograft tumors were inoculated by injection of 1×10^6 CLS-103˜cldn18.2 cells subcutaneous into the flank of 10 NMRI mice for each treatment group. […] After end of chemotherapy, IMAB362 and IL-2 treatment was continued for the whole observation period. Tumor size and animal health were monitored semi-weekly.

[19] = system: NUGC-4 gastric cancer cells; experiment: IMAB362-mediated ADCC on chemotherapy-pretreated NUGC-4 cells; format: cell-based, human; conditions: NUGC-4 pretreated with 5-FU+OX, EOF or FLO for 96 hours
Experimental: IMAB362-mediated ADCC was investigated using NUGC-4 gastric cancer cells as target, which were either pretreated with 10 ng/ml 5-FU and 500 ng/ml oxaliplatin (5-FU+OX), 10 ng/ml epirubicin, 500 ng/ml oxaliplatin and 10 ng/ml 5-FU (EOF) or 10 ng/ml 5-FU, 50 ng/ml folinic acid and 500 ng/ml oxaliplatin (FLO) for 96 hours (effector:target ratio 40:1) or untreated. EC50 values were obtained from 7 healthy donors for untreated and EOF, FLO or 5-FU+OX pretreated NUGC-4 cells.

[20] = system: NUGC-4~CLDN18.2 xenografts; experiment: IMAB362 immunotherapy of NUGC-4~CLDN18.2 xenografts; set-up: species or system mice; conditions: mouse, in vivo

## IMAB362: chimeric IgG1 antibody directed against CLDN18.2, developed by Ganymed Pharmaceuticals AG
[1]
  tolerability of repeated i.v. doses: well tolerated
[2]; single i.v. administration, 33-1000 mg/m^2, observed for 28 days
  tolerability in patients: very well tolerated
[2]; within 4 weeks after treatment
  tumor markers in one patient: decreased significantly
[3]
  outgrowth of CLDN18.2-positive tumors: significantly inhibited and nearly abrogated
[4]
  antitumoral effects: No antitumoral effects
[5]; 200 μg twice per week for 6 weeks, start at mean tumor volume 88 mm^3, controls 25 days
  median survival time: 47 days
[5]; 9 to 10 mice per group
  mice surviving the entire observation period: Three
[6]
  tolerability of repeated i.v. doses: well tolerated
[7]
  ADCC activity against CLDN18.2-positive NUGC-4 cells: Strong IMAB362-dependent ADCC activity
[8]; any toxicity study
  gastric toxicity: no gastric toxicity
[8]; in vivo
  adverse effects on male or female reproductive organs: No adverse effects
  immune activation and cytokine release: does not induce immune activation and cytokine release
[8]; repeated i.v. doses
  systemic or local toxicity: No signs of systemic or local toxicity
[9]; EOF i.p. day 4, 11, 18, 25, IMAB362 800 μg i.v. weekly
  tumor growth: highly significant suppressed tumor growth
[9]; saline control 59 days, sacrifice at 1400 mm^3
  median survival: 76 days
[10]
  affinity and specificity for CLDN18.2 ECD1: high affinity and specificity
[11]
  mice showing regression of their tumor: up to 40%
[12]; 800 μg i.v. weekly from day 5, versus saline
  tumor growth: inhibited highly significant (p<0.001) tumor growth
[12]; 800 μg i.v. weekly, sacrifice at 1400 mm^3
  survival time: significantly (p<0.05) longer survival time
[13]; 24 hours after i.v. injection, 80 μg Dyelight 680-labeled antibody
  localisation of labeled antibody, live imaging: accumulates strongly and exclusively in the tumor xenografts
[13]; 120 hours after injection
  retention of labeled antibody signal in tumor: detectable in comparable intensity even after 120 hours
[14]
  tumor growth: inhibited significantly the tumor growth
[15]
  mice surviving the entire observation period of 210 days: 4 of 10
[16]; 200 μg twice weekly i.v./i.p. starting 6 days after inoculation, p<0.05
  tumor growth compared to controls: significant inhibited
[16]; p<0.05
  tumor volumes at day 21 after tumor inoculation compared to control mice: significant smaller
[16]; treatment initiated at about 109 mm^3, versus 25 days, non-significant
  median survival time: 31 days
[16]; treatment initiated at mean tumor size of about 109 mm^3
  tumor growth rate: significantly reduce tumor growth rate
[17]; NUGC-4 targets, cells sorted from ZA/IL-2-cultured PBMC on day 14
  ADCC activity with purified (>97%) Vγ9Vδ2 T cells: retained and partly improved
[17]; ZA/IL-2 cultured effector cells, E:T ratio 40:1
  ADCC activity on CLDN18.2-positive versus CLDN18.2-negative cell lines: Strong ADCC activity against CLDN18.2-positive, but not CLDN18.2-negative human tumor cell lines
[18]
  tumor growth inhibition: no significant tumor growth inhibition
[19]
  maximal lysis in IMAB362-mediated ADCC versus untreated target cells: higher maximal lysis
[20]
  survival: significantly (p<0.05) longer survival
  tumor sizes at day 14 of treatment: significant (p<0.05) smaller tumor sizes
